Each structure is given as a SMILES string.

For data set [1], the system named is AMPK. Put plainly: Western blot of phosphorylated AMPK (P-AMPK/AMPK) in ADPKD cells. The note with it: for phosphorylation of AMPK: 100 nm, 24 h; for rank order of the effect on AMPK phosphorylation: western blot. The class given is cell-based, human. The method, then:
(§1) We designed and synthesized a small molecule LKB1 activator BIT-11 by incorporating an oxadiazole moiety into a unique 3-substituted 2H-chromene derivative. The effects of BIT-11 on phosphorylated AMPK (P-AMPK) and S6 kinase (P-S6K), a downstream target of mTOR, were determined by western blot analysis. To test the drug's effect on Cl^− transport, ADPKD monolayers were incubated in the absence and presence of BIT-11 and then treated with forskolin, a cAMP agonist. Changes in Cl^− transport were measured by short circuit current. For in vitro cyst growth assays, ADPKD cells were seeded within a collagen matrix and treated with EGF and forskolin±BIT-11, and total surface area of cysts per well was calculated from individual cyst diameters. […] The numbers above blots indicate P-AMPK/AMPK normalized to control. […] ADPKD cells were treated with BIT129, BIT130, and BIT131 (e.g., 100 nm) for 24 h, then cell lysates were prepared. […] The rank order of the effect of the new drugs on AMPK phosphorylation was BIT-131>BIT-130>BIT-129.

The next data set has as its system S6 kinase (S6K). Put plainly: Western blot of phosphorylated S6 kinase (P-S6K/S6K), downstream target of mTOR, in ADPKD cells. The data set is classed as cell-based, human. The note with it: 24 hours, control media 0.05% fetal bovine serum. The method, then:
as §1

Data set [2] relates to human ADPKD cells. The data set can be described thus: Proliferation of human ADPKD cells (automated cell count). The class given is cell-based. The note with it: 10 to 1000 nM, 48 h, 0.05% fetal bovine serum. From the text:
Cells were counted using an automated cell counter.

Data set [3] has as its system human ADPKD cells. The data set can be described thus: In vitro cyst growth of ADPKD cells within a collagen matrix. The note with it: 5 μM forskolin and 5 ng/ml EGF, cysts diameter ≥50 μm. The data set is classed as cell-based. The method, then:
(§2) We designed and synthesized a small molecule LKB1 activator BIT-11 by incorporating an oxadiazole moiety into a unique 3-substituted 2H-chromene derivative. The effects of BIT-11 on phosphorylated AMPK (P-AMPK) and S6 kinase (P-S6K), a downstream target of mTOR, were determined by western blot analysis. To test the drug's effect on Cl^− transport, ADPKD monolayers were incubated in the absence and presence of BIT-11 and then treated with forskolin, a cAMP agonist. Changes in Cl^− transport were measured by short circuit current. For in vitro cyst growth assays, ADPKD cells were seeded within a collagen matrix and treated with EGF and forskolin±BIT-11, and total surface area of cysts per well was calculated from individual cyst diameters.
Cells were seeded in PureCol Type I collagen and stimulated to form cysts with 5 μM forskolin (FSK) and 5 ng/ml epidermal growth factor (EGF) for 3 days. […] FIG. 4A includes representative images of individual wells.

The test system of data set [4] is ADPKD cell monolayers. Put plainly: cAMP-induced Cl- secretion (short circuit current) across ADPKD cell monolayers. The note with it: 10 μM for 24 hours, FSK 10 μM, n=10 pairs of monolayers. The class given is cell-based, human. The method, then: as §2
FIG. 5A-5B show the effect of BIT-11 on cAMP-induced Cl^− secretion by ADPKD cell monolayers. ADPKD cells were grown as polarized monolayers on permeable Snapwell supports. […] ADPKD monolayers were mounted in Ussing chambers and treated with 10 μM benzamil to block the Na^+ current prior to the experiment. FSK (10 μM), a potent cAMP agonist, was added to maximally stimulate anion secretion.

The subject of a further data set is Pkd1 mutant kidneys. The data set can be described thus: Ex vivo cyst formation in Pkd1-/- embryonic kidneys in metanephric organ culture. The arrangement: species or system mouse. The note with it: 10 μM, 100 μM 8-Br-cAMP, E15.5 kidneys, 4 days in culture. On the procedure: FIG. 6 includes images that show the effect of BIT-11 on cyst-like tubule expansions in Pkd1 mutant kidneys. Kidneys were harvested from Pkd1 mutant (Pkd1^−/−) mice at embryonic day 15.5 (E15.5) and placed on permeable cell culture inserts. The kidneys were bathed in media containing 100 μM 8-Bromo-adenosine 3′,5′-cyclic monophosphate (cAMP) to stimulate mural epithelial cell proliferation and Cl^−-dependent fluid secretion, key factors in cyst formation. Images of kidneys were captured using a digital camera connected to a dissecting microscope and cystic area was monitored for 4 days. cAMP induced the formation of cyst-like dilations in Pkd1^−/− kidneys that progressively enlarged over 4 days in culture.

Data set [5] has as its system AMPK. Put plainly: P-AMPK levels in kidneys of wild type mice after i.p. dosing. The note with it: wild type mice, 5, 10 or 25 mg/kg i.p. once per day for 4 days, two hours after last dose, compared to vehicle. The class given is in vivo, mouse. On the procedure: (§3) Normal mice were given BIT-11 at 5, 10 or 25 mg/kg body weight by daily intraperitoneal injection for 4 days. BIT-11 was delivered at 20% DMSO and 80% corn oil. Two hours after the last injection, the mice were sacrificed and the kidneys were snap-frozen and stored at −80 degree C., until tissue lysates were prepared. Tissues were homogenized in a lysis buffer containing detergent and protease and phosphatase inhibitors. Proteins were resolved by SDS PAGE and detected by immunoblot using P-AMPK and AMPK antibodies.
(§4) Another study included dosing wild type mice with BIT-11 once per day for 4 days and measured P-AMPK levels in the kidneys two hours after the last dose.

A short description of data set [6]: Tolerability in wild type mice. The data set is classed as in vivo. The note with it: mice, 5, 10 and 25 mg/kg i.p., once per day for 4 days. On the procedure: as §3, §4
Data set [7] deals with ADPKD cell monolayers. The note with it: found previously, selective CFTR inhibitor; cited from earlier work.
For data set [8] the following is noted: in vivo; cited from earlier work.

Take `CC1(C)OB(c2ccc(-c3noc(C4=Cc5cc(Cl)cc(Cl)c5OC4c4ccccc4)n3)cc2)OC1(C)C` (stereo not drawn) [BIT-129]: in the data set on AMPK [1] (ADPKD cells), the “phosphorylation of AMPK” value is on record as “can promote phosphorylation of AMPK” and the “rank order of the effect on AMPK phosphorylation” value is given as “BIT-131>BIT-130>BIT-129”.
As for `OB(O)c1ccc(-c2noc(C3=Cc4cc(Cl)cc(Cl)c4OC3c3ccccc3)n2)cc1` (stereo not drawn) [BIT-130], in the data set on AMPK [1] (ADPKD cells), the “phosphorylation of AMPK” value is given as “can promote phosphorylation of AMPK” and the “rank order of the effect on AMPK phosphorylation” value is on record as “BIT-131>BIT-130>BIT-129”.
As to `O=C(O)c1ccc(-c2noc(C3=Cc4cc(Cl)cc(Cl)c4OC3c3ccccc3)n2)cc1` (stereo not drawn) [BIT-11], the “effect on P-AMPK/AMPK” value in the data set on AMPK [1] (ADPKD cells, BIT-11 at 10 nM, 100 nM and 1,000 nM, 24 hours) was “can promote phosphorylation of AMPK increasingly with increasing amounts”. Also, the “biological activity compared with AMPK activator Metformin” value with AMPK [1] (comparison with Metformin) is “much better efficacy”. Further, the “effect on P-S6K/S6K” value in the data set on S6 kinase (S6K) was “can inhibit phosphorylation of S6K increasingly at increasing amounts”. Further, the “effect on proliferation of human ADPKD cells” value with human ADPKD cells [2] is “increasingly inhibit proliferation of ADPKD cells”. In the data set on human ADPKD cells [3], the “total cyst surface area (in vitro cyst growth)” value is listed as “can inhibit cyst proliferation”. In the data set on ADPKD cell monolayers [4], the “cAMP-induced Cl- secretion (steady-state short circuit current)” value is recorded as “a decrease in cAMP-induced Cl^− secretion”. Also, the “cyst formation in Pkd1-/- kidneys” value with Pkd1 mutant kidneys is “nearly eliminated cyst formation”. Besides, the “P-AMPK levels in the kidneys” value with AMPK [5] is reported as “markedly increased P-AMPK levels in the kidneys”. In data set [6], the tolerability result is given as “well tolerated”.
Take `O=C(O)c1ccc(/C=C2\SC(=S)N(c3cccc(C(F)(F)F)c3)C2=O)cc1` [CFTRinh-172]: the “anion current across ADPKD monolayers” value in the data set with ADPKD cell monolayers [7] was “completely blocked”.
Turning to `CN(C)C(=N)N=C(N)N` [Metformin], the “eliminated by renal excretion” value in data set [8] is approximately 80%.

The record behind these values is patent US10450305B2, “LKB1-AMPK activators for therapeutic use in polycystic kidney disease” (The University of Kansas, priority 2014, dated 2019).
